Tests used:
Mus musculus = experiment: Dose that prevents convulsions in 50% of the CF1 male mice tested after administration of 70 mg/kg of metrazole by intravenous route; type: functional
[1] = Lethal dose was determined after intraperitoneal administration in mice; type: toxicity, organism-based; conditions: mouse, in vivo, ip
[2] = biological target: GABA-A receptor; anion channel; experiment: In vitro displacement of [3H]-diazepam from GABA-A Benzodiazepine receptor; type: protein-complex assay

**Q.** Which results are given for `CN(C(=O)CN)c1ccc(Cl)cc1C(=O)c1c(Cl)cccc1Cl.Cl`?
**A.** ED50 (Mus musculus): > 200 mg/kg; LD50 [1]: 245 mg/kg; IC50 [2]: 930 nM

**Q.** Which ED50 (Mus musculus) does the source give for `NCC(=O)Nc1ccc(Cl)cc1C(=O)c1ccccc1Cl` here?
**A.** Its ED50 is 3.8 mg/kg.

**Q.** And the IC50 [2]?
**A.** The IC50 was 4.8 nM.

**Q.** Which ED50 (Mus musculus) does the source give for `Cl.NCC(=O)Nc1ccc(Cl)cc1C(=O)c1c(Cl)cccc1Cl` here?
**A.** Its ED50 is > 400 mg/kg.

**Q.** And the IC50 [2]?
**A.** The IC50 was 1000 nM.

**Q.** For `O=C1CN=C(c2c(Cl)cccc2Cl)c2cc(Cl)ccc2N1` [RO-223294], which ED50 (Mus musculus) is on record?
**A.** Its ED50 is 6 mg/kg.

**Q.** And the IC50 [2]?
**A.** Its IC50 is 5.5 nM.

**Q.** For `O=C1CN=C(c2ccccc2Cl)c2cc(Cl)ccc2N1` [DELORAZEPAM], which ED50 (Mus musculus) is on record?
**A.** Its ED50 is 0.26 mg/kg.

**Q.** And the IC50 [2]?
**A.** Its IC50 is 2.8 nM.

**Q.** Which results are given for `CN(C(=O)CN)c1ccc(Cl)cc1C(=O)c1ccccc1`?
**A.** ED50 (Mus musculus): 1 mg/kg; IC50 [2]: 9.9 nM

**Q.** For `CN1C(=O)CN=C(c2ccccc2)c2cc(Cl)ccc21` [DIAZEPAM], which ED50 (Mus musculus) is on record?
**A.** Its ED50 is 1.2 mg/kg.

**Q.** With `CN1C(=O)CN=C(c2c(Cl)cccc2Cl)c2cc(Cl)ccc21` as the molecule, how does the ED50 (Mus musculus) read?
**A.** Its ED50 is 18.9 mg/kg.

**Q.** What about the IC50 [2] of the same molecule?
**A.** The IC50 was 7 nM.

From ChEMBL document CHEMBL1122128, “Quinazolines and 1,4-benzodiazepines. 90. Structure-activity relationship between substituted 2-amino-N-(2-benzoyl-4-chlorophenyl)acetamides and 1,4-benzodiazepinones” (J Med Chem, 1982)
